Results published in US20260234180A1, “AMINO ACID DERIVATIVE, PREPARATION METHOD THEREFOR, AND PHARMACEUTICAL COMPOSITION FOR TREATING HEPATITIS, COMPRISING SAME” (priority 2021, published 2026).

What was measured:
Jurkat cell line = experiment: Cytotoxicity, WST-1 cell viability; type: cell-based, human; conditions: 0.2 μM~50 μM, 24 and 48 hours
Procedure: For Example 1 (LCA-Ile), Example 44 (LCA-Val), Example 2 (UDCA-Ile), and Example 3 (UDCA-Val), cytotoxicity was evaluated in the Jurkat cell line, a human T lymphocyte-derived cell line. Jurkat cell lines were seeded at a density of 5×10^4 on a 96 well plate for overnight incubation, and each compound was treated at a concentration of 0.2 μM~50 μM for 24 or 48 hours. WST-1, a reagent for measuring cell viability, was loaded at 10 μl/well, and absorbance was measured at 440 nm using a microplate reader 2 hours later. The mean value of negative control (NC) group treated with only DMSO was calculated as 1 and the cytotoxicity for the remaining experimental group was evaluated.

HBV virus [1] = experiment: HBV infection of HepG2-NTCP cells, HBeAg ELISA analysis; type: cell-based, hepatitis B virus (HBV); conditions: 20 μM, O.D. 450 nm
Procedure: (§1) Specifically, the HepG2-NTCP cell line was cultured on a 6-well plate, incubation was performed overnight, HBV inhibitors were treated at a concentration of 20 μM, and the positive control Myrcludex-B (MyrB) was treated at a concentration of 200 nM, followed by culture for 24 hours. After HBV infection into the cells to make HBV 3000 genome equivalent per ml/cell (Geq/cell), the cell culture medium was replaced (medium changing, MC) a day after the viral infection to remove the virus unattached to cell membranes. In order to measure an amount of virus that entered the cell, medium changing (MC) was performed once more 4 days after viral infection. 2 days after replacement, HBeAg ELISA analysis was performed using a supernatant, and Southern blot analysis was performed with cell pellets.
HBeAg ELISA analysis was performed using an HBeAg ELISA kit (sanbio, Wantai HBeAg ELISA, cat #WB-2496) for the supernatant obtained by the method in Experimental Example 4-1.
First, a negative control group (Mock), positive control group (MyrB), and samples according to the present disclosure were loaded, by 50 μl each to be triplicate, onto a 96-well plate coated with capture Ab. In this case, Example 1 (LCA-ILE), Example 44 (LCA-Val), Example 52 (LCA-Tyr), Example 51 (LCA-Ser), Example 55 (LCA-Glu), Example 2 (UDCA-Ile), Example 3 (UDCA-Val), Example 25 (LCA-Val-Trp), Example 10 (DCA-Ile), Comparative Example 1 (LCA), and Comparative Example 2 (UDCA) were used as the sample.
The HRP-conjugated detection antibody was loaded into each well by 50 μl, followed by a reaction at 37° C. for 30 minutes. Washing buffer (1×PBS, 0.5% Tween20) was added by 200 μl, and washing was performed 5 times. 50 μl of chromogen solution A and 50 μl of chromogen solution B were added to each well, and a reaction was carried out in the darkness at 37° C. for 15 minutes. The stop solution was added to each well by 50 μl each to stop the reaction, and the amount of HBeAg was measured by measuring the absorbance (optical density, O.D.) level in the 450 nm wavelength band.

HBV virus [2] = experiment: HBV infection of HepG2-NTCP cells, Southern blot analysis; type: cell-based, hepatitis B virus (HBV); conditions: 20 μM
Procedure: as §1
First, the cell pellets were pipetted with 100 μl of HEPES lysis buffer (10 mM HEPES, 100 mM NaCl, 1 mM EDTA, 1% NP-40), placed on ice for 20 minutes, and then centrifuged with a centrifuge under the conditions at 4° C. and 13000 rpm. After transferring the supernatant only to the new microtube, 4.5 μl of nuclease buffer I (10 mM CaCl2), 12 mM MgCl2, DNase 10 units) was added to carry out a reaction at 37° C. for 2 hours, and 40 μl of 26% PEG solution was added, followed by a reaction on ice for 1 hour. After centrifuging with the centrifuge at 4° C. and 13000 rpm for 30 minutes, and the supernatant was removed cleanly. After releasing the pellets with 100 μl of nuclease buffer II (10 mM Tris, 8 mM CaCl2), 6 mM MgCl2), 287.5 μl of 0.5% SDS buffer (25 mM Tris, 10 mM EDTA, 0.5% SDS, 100 mM NaCl) was added, and 12.5 μl of 20 mg/ml proteinase K was added, followed by a reaction at 37° C. for 2 hours. 400 μl of phenol-chloroform-isoamyl alcohol was added, centrifugation was performed at room temperature at 13000 rpm after voltexing, the supernatant was transferred to a new tube, 40 μl of 3 M NaOAc was added, and 800 μl of 100% ethanol was added for inverting, followed by a reaction overnight at −20° C. After performing centrifugation at 4° C. and 13000 rpm for 30 minutes, 800 μl of 70% ethanol was added and mixed to the pellet obtained by removing the supernatant, centrifugation was performed at 4° C. and 13000 rpm for 10 minutes, and then the supernatant was discarded. The ethanol was dried for 5 minutes to leave only the HBV DNA pellets, and then the pellets were dissolved again in 15 μl of TE buffer (10 mM Tris, 1 mM EDTA). HBV DNA samples were loaded in 1% agarose gel, and electrophoresis was performed. It was then immersed in denature buffer (0.25 N NaOH, 1 M NaCl) for 30 minutes to denature dsDNA of HBV into ssDNA. The DNA in the gel was transferred to a Nylon membrane using a transfer buffer (0.4 M NaOH), the membrane was soaked with a 2×SSC buffer (sigma, cat #85639) for neutralization, followed by drying in air. The membrane was immersed in a church buffer (10% BSA, 0.5 M EDTA, 1 M NaPi, 20% SDS), and the radioisotopes were hybridized using a Mega prime kit (GE healthcare, RPN1607). After washing three times with washing buffer (2×SSC, 0.1% SDS), measurement was performed using radioisotope measurement equipment, and a relative replication rate (%) to the negative control group (Mock) was calculated and shown.

Structure (SMILES)	cytotoxicity (Jurkat cell line)	HBeAg absorbance level relative to Comparative Example 1 (LCA) and Comparative Example 2 (UDCA) (HBV virus [1])	HBeAg absorbance level relative to the negative control group (Mock) (HBV virus [1])	amount of HBeAg DNA detected compared to the negative control group (Mock) (HBV virus [2])
CC[C@@H](C)[C@H](NC(=O)CC[C@@H](C)[C@H]1CC[C@H]2[C@@H]3CC[C@@H]4C[C@H](O)CC[C@]4(C)[C@H]3CC[C@]12C)C(=O)O [Example 1, (2S,3R)-2-((R)-4-((3R,5R,8R,9S,10S,13R,14S,17R)-3-hydroxy-10,13-dimethyl-hexadecahydro-1H-cyclopenta[a]phenanthren-17-yl)pentanamido)-3-methylpentanoic acid]	barely observed	lower	relatively lower	relatively less amount
CC[C@@H](C)[C@H](NC(=O)CC[C@@H](C)[C@H]1CC[C@H]2[C@@H]3[C@@H](O)C[C@@H]4C[C@H](O)CC[C@]4(C)[C@H]3CC[C@]12C)C(=O)O [Example 2, (2S,3R)-2-((R)-4-((3R,5S,7S,8R,9S,10S,13R,14S,17R)-3,7-dihydroxy-10,13-dimethyl-hexadecahydro-1H-cyclopenta[a]phenanthren-17-yl)pentanamido)-3-methylpentanoic acid]	barely observed	lower	relatively lower	relatively less amount
CC(C)[C@H](NC(=O)CC[C@@H](C)[C@H]1CC[C@H]2[C@@H]3[C@@H](O)C[C@@H]4C[C@H](O)CC[C@]4(C)[C@H]3CC[C@]12C)C(=O)O [Example 3, (S)-2-((R)-4-((3R,5S,7S,8R,9S,10S,13R,14S,17R)-3,7-dihydroxy-10,13-dimethyl-hexadecahydro-1H-cyclopenta[a]phenanthren-17-yl)pentanamido)-3-methylbutanoic acid]	barely observed	lower	relatively lower	relatively less amount
CC[C@@H](C)[C@H](NC(=O)CC[C@@H](C)[C@H]1CC[C@H]2[C@@H]3CC[C@@H]4C[C@H](O)CC[C@]4(C)[C@H]3C[C@H](O)[C@]12C)C(=O)O [Example 10, (2S,3R)-2-((R)-4-((3R,5R,8R,9S,10S,12S,13R,14S,17R)-3,12-dihydroxy-10,13-dimethyl-hexadecahydro-1H-cyclopenta[a]phenanthren-17-yl)pentanamido)-3-methylpentanoic acid]		lower	relatively lower	relatively less amount
CC(C)[C@H](NC(=O)CC[C@@H](C)[C@H]1CC[C@H]2[C@@H]3CC[C@@H]4C[C@H](O)CC[C@]4(C)[C@H]3CC[C@]12C)C(=O)O [Example 44, (S)-2-((R)-4-((3R,5R,8R,9S,10S,13R,14S,17R)-3-hydroxy-10,13-dimethyl-hexadecahydro-1H-cyclopenta[a]phenanthren-17-yl)pentanamido)-3-methylbutanoic acid]	barely observed	lower	relatively lower	relatively less amount
